From US20250026741A1, “INHIBITORS OF THE ONCOGENIC SHP2 PHOSPHATASE AND USES THEREOF” (Sanford Burnham Prebys Medical Discovery Institute, priority 2021, published 2025)

Columns and labels:
[1] = target: SHP2cat (Homo sapiens (Human), UniProt Q06124); assay: Protein thermal shift (PTS) assay; assay type: binding; details: vs vehicle (DMSO) control
Source text: We confirmed specific and dose-dependent binding of inhibitors to SHP2 by protein thermal shift, which monitors the thermal stability of a target protein in vitro. […] In addition, we confirmed the inhibitory activity of several furanylbenzamide inhibitors, including the top two compounds #02 and #01, in SHP2cat inhibition assays using the alternative substrate 3-O-methylfluorescein phosphate (OMFP), which features a peak fluorescence emission that is red-shifted by […] compared to DiFMUP. The Km value of OMFP for SHP2cat was determined to be 50 μM. An OMFP fluorescence intensity-based assay was used to perform inhibitor dose-response experiments and determine IC50 values.
Differential scanning fluorimetry (also known as protein thermal shift) measurements of SHP2cat were performed. #02 was spotted at different concentrations into MicroAmp®384-well real-time PCR plates (#4483285, Applied Biosystems, Waltham, MA) using an Echo 555 Liquid Handler. […] Plates were analyzed using a ViiA® 7 Real-Time PCR instrument (Applied Biosystems, Waltham, MA) and a 12 min temperature gradient with a temperature increase of 0.075° C./s. The melting temperature and thermal profiles were determined using Protein Thermal Shift™ Software v1.3 (Applied Biosystems, Waltham, MA).

[2] = test system: MOLM-13 AML cells (expressing WT SHP2); assay: Cell viability assay (CellTiter-Glo), MOLM-13; assay type: cell-based; details: Homo sapiens, MOLM-13, 72 h, regular MOLM-13 cells, CRISPR comparison experiment
Description: Next, we performed an 11-day colony formation assay with TNBC cells treated with #02 or SHP099 at 5, 10, or 20 μM (FIG. 3D).
Finally, we evaluated the selectivity of our top two compounds, #01 and #02, on MOLM-13 AML cells in which SHP2 was depleted using CRISPR-Cas9 knock-out (KO). High-efficiency Cas9-editing MOLM-13 cells were generated by transducingMOLM-13 cells with a Cas9 lentiviral construct. Stable clones were tested for editing efficiency by performing TIDE analysis (45), and these MOLM13-Cas9 cells were transduced with a lentiviral construct containing an AAVS1 single guide RNA (sgRNA) and an mCherry reporter for bulk-sorting of cells with successful AAVS1 editing. […] Cells were treated with inhibitors at various concentrations (ranging from […] to 58 nM) or vehicle control (DMSO) for 72 h, before cell viability was assessed.
Viability of AML, esophageal carcinoma, and TF-1 cells was assessed using the ATP-depletion assay CellTiter-Glo® (Promega). Cells were harvested at 1×10^6/mL to 2×10^6 cells/mL with cell numbers determined by trypan blue using the Countess Cell counter (Thermo Scientific) and resuspended in culture media. […] Luminescence was read on a Tecan Spark® Multimode Microplate Reader and data analyzed using Graph Pad Prism software. […]

Chain of SHP2cat (Q06124 248-527): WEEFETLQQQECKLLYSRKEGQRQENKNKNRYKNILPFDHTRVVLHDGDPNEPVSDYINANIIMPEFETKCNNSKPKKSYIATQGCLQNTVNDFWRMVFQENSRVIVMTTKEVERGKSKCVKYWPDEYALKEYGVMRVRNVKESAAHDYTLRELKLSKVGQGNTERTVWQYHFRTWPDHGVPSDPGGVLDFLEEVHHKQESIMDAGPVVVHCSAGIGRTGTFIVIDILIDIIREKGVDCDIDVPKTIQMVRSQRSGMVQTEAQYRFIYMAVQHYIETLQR

IC50 [2]: 15 µM
SMILES: O=C(Nc1ccccc1)c1cc(-c2ccc(/C=C3\Sc4ccccc4C3=O)o2)ccc1O [#02, (Z)-2-hydroxy-5-(5-((3-oxobenzo[b]thiophen-2(3H)-ylidene)methyl)furan-2-yl)-N-phenylbenzamide]
change of SHP2cat melting temperature (Tm) [1]: dose-dependently increased the melting temperature
